{"source": "patent US20160030530A1", "about": "“SULFORAPHANE/SULFORAPHANE PRECURSOR AND PHYTOSTEROL/PHYTOSTANOL COMPOSITIONS” (NUTRAMAX LABORATORIES, INC., priority 2013, published 2016)", "key": {"[1]": {"test_system": "broccoli sprout-derived myrosinase", "assay": "Consumption of glucoraphanin as a function of the ascorbic acid concentration (hydrolysis by myrosinase)", "assay_type": "biochemical", "experimental": "About 250 mg of broccoli seed extract containing about 12% (w/w) glucoraphanin were subjected to hydrolysis by a fixed concentration of broccoli sprout-derived myrosinase in the presence of variable concentration of ascorbic acid, ranging from 0 to 600 μmoles/Liter. The reaction mixtures were thermostated at 38° C.; aliquots were withdrawn every 15 minutes for 60 minutes, and concentration of glucoraphanin determined chromatographically. The rate of glucoraphanin consumption was interpreted as the rate its conversion to sulforaphane. Graphical representation of glucoraphanin content reduction as a function of increasing ascorbic acid concentration results in a series of linear plots; the slopes of the linear regression lines reflect the rate of glucoraphanin consumption, in μmoles/minute. It is apparent that in the presence of 600 μmoles/Liter concentration of ascorbic acid, the reaction rate increased 13-fold relative to that which proceeded in the absence of modulatory effects of ascorbic acid."}, "[2]": {"test_system": "myrosinase", "assay": "Conversion of glucoraphanin to sulforaphane in the presence of Simulated Intestinal Fluid", "assay_type": "biochemical, broccoli", "conditions": "0.25 to 1.00 mmol/Liter ascorbic acid, 38° C., 2 hours", "experimental": "Simulated Intestinal Fluid (SIF) powder, a commercially supplied concentrate closely approximating the human intestinal content in terms of composition, pH and ionic strength, was used. The experiment utilized a USP Dissolution Apparatus 2 (paddles), where into six dissolution vessels 500 mL of Simulated Intestinal Fluid was dispensed, along with 150 mg of freeze-dried broccoli sprout powder as a source of myrosinase. In vessels 1-4, the concentration of ascorbic acid was varied from 0.25 to 1.00 mmol/Liter; in vessel 5, in addition to 1 mmol/Liter ascorbic acid, 3.125 g of pancreatin (8×USP) was suspended; in vessel 6, in addition to 1 mmol/Liter ascorbic acid, and 3.125 g of pancreatin (8×USP), a doubled amount of freeze-dried broccoli sprout powder (300 mg) was added. After vessels were brought to 38° C., 250 mg of glucoraphanin-rich (12%, w/w) broccoli seed extract was added to each, and the resulting suspensions were stirred at 75 RPM for 2 hours. Aliquots were withdrawn every 15 minutes, and assayed for sulforaphane."}, "[3]": {"test_system": "myrosinase", "assay": "Equimolar conversion of glucoraphanin to sulforaphane, role of ascorbic acid in modulating myrosinase activity", "assay_type": "biochemical, broccoli", "conditions": "control sample, without ascorbic acid", "experimental": "A two-part experiment was conducted to further elucidate the role of ascorbic acid in modulating myrosinase activity. […] A control sample contained no ascorbic acid, and the enzymatic conversion proceeded unassisted by a co-factor. PART 1. […] PART 2. While keeping the amount of broccoli seed extract fixed at 250 mg, the concentration of ascorbic acid was varied from 0.4 mmol/Liter to 3.8 mmol/Liter. The table below presents glucoraphanin and sulforaphane expressed in μmoles."}, "[4]": {"test_system": "chondrocytes", "conditions": "IL-1β-induced NF-κB pathway; cited from earlier work"}}}
{"smiles": "O=C1O[C@H]([C@@H](O)CO)C(O)=C1O", "note": "[Ascorbic Acid, ascorbic acid]", "values": [{"measurement": "Slope (rate of glucoraphanin consumption)", "setting": "[1]; 0 μM ascorbic acid, linear regression 0-60 min", "value": -0.09293, "unit": "µmol/min"}, {"measurement": "Glucoraphanin (GR) content", "setting": "[1]; 0 μM ascorbic acid, time 15 min, 38° C.", "value": 92.24, "unit": "µmol"}, {"measurement": "Glucoraphanin (GR) content", "setting": "[1]; 0 μM ascorbic acid, time 30 min, 38° C.", "value": 90.71, "unit": "µmol"}, {"measurement": "Glucoraphanin (GR) content", "setting": "[1]; 0 μM ascorbic acid, time 45 min, 38° C.", "value": 89.44, "unit": "µmol"}, {"measurement": "Glucoraphanin (GR) content", "setting": "[1]; 0 μM ascorbic acid, time 60 min, 38° C.", "value": 87.79, "unit": "µmol"}, {"measurement": "Increase of reaction rate relative to absence of ascorbic acid", "setting": "[1]; 600 μmoles/Liter ascorbic acid, 38° C.", "value": 13, "unit": "fold"}, {"measurement": "Yield of sulforaphane versus ascorbic acid concentration", "setting": "[2]", "value": "direct correlation between larger yield of sulforaphane and higher concentrations of ascorbic acid"}]}
{"smiles": "C[S+]([O-])CCCC/C(=N\\OS(=O)(=O)O)S[C@@H]1O[C@H](CO)[C@@H](O)[C@H](O)[C@H]1O", "note": "(stereo partly drawn) [glucoraphanin, 4-methylsulfinylbutyl glucosinolate]", "values": [{"measurement": "Conversion of glucoraphanin to sulforaphane (amount consumed versus amount produced)", "setting": "[3]", "value": "equimolar conversion of glucoraphanin to sulforaphane"}]}
{"smiles": "CC[C@H](/C=C/[C@@H](C)[C@H]1CC[C@H]2[C@@H]3CC=C4C[C@@H](O)CC[C@]4(C)[C@H]3CC[C@]12C)C(C)C", "note": "[stigmasterol, 3β-stigmasta-5,22,-dien-3-ol]", "values": [{"measurement": "Pro-inflammatory and matrix degradation mediators (MMP-3, MMP-13, ADAMTS-4, PGE2)", "setting": "[4]", "value": "inhibits several pro-inflammatory and matrix degradation mediators"}]}
